Source: patent US20250326771A1, “PIPERAZINE DERIVATIVES USEFUL IN HIV THERAPY” (VIIV HEALTHCARE COMPANY, priority 2022, published 2025)
pIC50: −log10 of the molar value. Where two headings read alike, the source gives them in different places.

Experiments:
[1] = tested on: Jurkat HIV-luciferase clones; assay: Jurkat latency reversal assay; format: cell-based; conditions: Homo sapiens, 48 h; Jurkat latency reversal assay potency; read-out: Jurkat pEC50 (converted)
Summary of the method: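 Compounds are titrated 3-fold over 14 points from 10 μM in duplicate at 0.5% DMSO. Clones C16, 115 and N6, grown with 500 nM EFV, are co-incubated for 48 h at 37° C. Virally driven luciferase is read by luminescence, and EC50 and maximal percent activation versus vehicle come from a four-parameter model.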

cIAP1-BIR3 = cIAP1-BIR3 (Homo sapiens (Human), UniProt Q13490); assay: BIR binding assay (FRET competition), cIAP1 BIR3; conditions: for cIAP1 BIR3 vs BIR2 separation window: fold separation (FS) for cIAP1
Chain of cIAP1-BIR3 (Q13490 253-363): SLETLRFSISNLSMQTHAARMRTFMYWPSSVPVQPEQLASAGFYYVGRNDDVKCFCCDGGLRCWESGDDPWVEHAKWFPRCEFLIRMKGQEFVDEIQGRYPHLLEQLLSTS
Summary of the method: (§1)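 Compounds tested as 15-point, 3-fold series displacing 200 nM AlexaFluor647-labelled SMAC peptide from His-tagged BIR domain (cIAP1-BIR3 50 nM; cIAP1-BIR2 and cIAP2-BIR2 325 nM; XIAP-BIR3 100 nM), pH 7.4, 60 min. Eu-W1024 (2 nM) added 30 min; emission ratio fitted for IC50.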

cIAP1-BIR2 = cIAP1-BIR2 (Homo sapiens (Human), UniProt Q13490); assay: BIR binding assay (FRET competition), cIAP1 BIR2
Chain of cIAP1-BIR2 (Q13490 173-257): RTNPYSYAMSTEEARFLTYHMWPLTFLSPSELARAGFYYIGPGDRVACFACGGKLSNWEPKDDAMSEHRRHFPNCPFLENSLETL
Summary of the method: as §1

cIAP2-BIR3 = cIAP2-BIR3 (Homo sapiens (Human), UniProt Q13489); assay: BIR binding assay (FRET competition), cIAP2 BIR3; conditions: for cIAP2 BIR3 vs BIR2 separation window: fold separation (FS) for cIAP2
Chain of cIAP2-BIR3 (Q13489 238-349): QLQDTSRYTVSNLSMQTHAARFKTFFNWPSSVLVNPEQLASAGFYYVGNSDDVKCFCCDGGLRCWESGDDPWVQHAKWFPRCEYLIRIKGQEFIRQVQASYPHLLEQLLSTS

cIAP2-BIR2 = cIAP2-BIR2 (Homo sapiens (Human), UniProt Q13489); assay: BIR binding assay (FRET competition), cIAP2 BIR2
Chain of cIAP2-BIR2 (Q13489 158-242): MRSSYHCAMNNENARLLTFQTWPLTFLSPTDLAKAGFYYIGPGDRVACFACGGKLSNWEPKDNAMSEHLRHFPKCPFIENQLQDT
Summary of the method: as §1

XIAP-BIR3 = XIAP-BIR3 (Homo sapiens (Human), UniProt P98170); assay: BIR binding assay (FRET competition), XIAP BIR3; conditions: for XIAP BIR3 vs BIR2 separation window: fold separation (FS) for XIAP
Chain of XIAP-BIR3 (P98170 241-356): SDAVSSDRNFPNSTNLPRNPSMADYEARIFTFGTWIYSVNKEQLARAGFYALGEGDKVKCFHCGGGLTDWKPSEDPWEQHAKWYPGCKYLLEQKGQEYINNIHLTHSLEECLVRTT
Summary of the method: as §1

XIAP-BIR2 = XIAP-BIR2 (Homo sapiens (Human), UniProt P98170); assay: BIR binding assay (FRET competition), XIAP BIR2; conditions: for IC50: read-out: XIAP BIR2 (pIC50) (converted)
Chain of XIAP-BIR2 (P98170 124-240): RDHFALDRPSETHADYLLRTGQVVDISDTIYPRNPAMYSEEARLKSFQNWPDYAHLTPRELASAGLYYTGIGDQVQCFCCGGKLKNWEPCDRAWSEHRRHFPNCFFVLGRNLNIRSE
Summary of the method: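 Competitive TR-FRET used His-tagged XIAP-BIR2 (200 nM) and 200 nM AlexaFluor647-labelled AVPIAQKSE SMAC peptide in HEPES buffer pH 7.4 with CHAPS, glycerol and DTT, incubated 60 min before 30 min with 2 nM Eu-W1024. The 615/665 nm ratio from a 15-point, 3-fold series was fit with a four-parameter model for IC50/pIC50.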

SMILES	EC50 [1] [nM]	pIC50 (cIAP1-BIR3)	cIAP1 BIR3 vs BIR2 separation window (cIAP1-BIR3)	pIC50 (cIAP1-BIR2)	pIC50 (cIAP2-BIR3)	cIAP2 BIR3 vs BIR2 separation window (cIAP2-BIR3)	pIC50 (cIAP2-BIR2)	pIC50 (XIAP-BIR3)	XIAP BIR3 vs BIR2 separation window (XIAP-BIR3)	IC50 (XIAP-BIR2; FRET competition binding) [nM]	IC50 (XIAP-BIR2; FRET competition) [nM]	pIC50 (XIAP-BIR2)
C[C@@H]1CN(CC(=O)N2CC(C)(C)c3[nH]c(=O)c(Cc4ccc(F)cc4)cc32)[C@@H](CN2CCC(CN(C)C(=O)Cc3ccc(CC(=O)N(C)CC4CCN(C[C@H]5CN[C@H](C)CN5CC(=O)N5CC(C)(C)c6[nH]c(=O)c(Cc7ccc(F)cc7)cc65)CC4)cc3)CC2)CN1 [Example 99, 2,2′-(1,4-phenylene)bis(N-((1-(((2R,5R)-1-(2-(6-(4-fluorobenzyl)-3,3-dimethyl-5-oxo-2,3,4,5-tetrahydro-1H-pyrrolo[3,2-b]pyridin-1-yl)-2-oxoethyl)-5-methylpiperazin-2-yl)methyl)piperidin-4-yl)methyl)-N-methylacetamide)]	63.1 to 316	8.10 to 8.86	+++ (10,000>FS>1,000)	5.00 to 5.50	7.80 to 8.10	+++ (10,000>FS>1,000)	5.00 to 5.50	7.80 to 8.10	++++ (FS>10,000)	10000 to 51300		
C[C@@H]1CN(CC(=O)N2CC(C)(C)c3[nH]c(=O)c(Cc4ccc(F)cc4)cc32)[C@@H](CN2CCC(CN(C)C(=O)Cc3ccc(C(=O)N(C)CC4CCN(C[C@H]5CN[C@H](C)CN5CC(=O)N5CC(C)(C)c6[nH]c(=O)c(Cc7ccc(F)cc7)cc65)CC4)cc3)CC2)CN1 [Example 97, N-((1-(((2R,5R)-1-(2-(6-(4-fluorobenzyl)-3,3-dimethyl-5-oxo-2,3,4,5-tetrahydro-1H-pyrrolo[3,2-b]pyridin-1-yl)-2-oxoethyl)-5-methylpiperazin-2-yl)methyl)piperidin-4-yl)methyl)-4-(2-(((1-(((2R,5R)-1-(2-(6-(4-fluorobenzyl)-3,3-dimethyl-5-oxo-2,3,4,5-tetrahydro-1H-pyrrolo[3,2-b]pyridin-1-yl)-2-oxoethyl)-5-methylpiperazin-2-yl)methyl)piperidin-4-yl)methyl)(methyl)amino)-2-oxoethyl)-N-methylbenzamide]	63.1 to 316	8.10 to 8.86	++++ (FS>10,000)	5.50 to 6.00	8.10 to 8.86	+++ (10,000>FS>1,000)	5.00 to 5.50	7.80 to 8.10	++++ (FS>10,000)	10000 to 51300		
C[C@@H]1CN(CC(=O)N2CC(C)(C)c3[nH]c(=O)c(Cc4ccc(C(F)F)cc4)cc32)[C@@H](CN2CCO[C@H](C(=O)NCc3ccc(CNC(=O)[C@@H]4CN(C[C@H]5CN[C@H](C)CN5CC(=O)N5CC(C)(C)c6[nH]c(=O)c(Cc7ccc(C(F)F)cc7)cc65)CCO4)cc3)C2)CN1 [Compound 166, (2S,2′S)-N,N′-(1,4-phenylenebis(methylene)) bis(4-(((2R,5R)-1-(2-(6-(4-(difluoromethyl)benzyl)-3,3-dimethyl-5-oxo-2,3,4,5-tetrahydro-1H-pyrrolo[3,2-b]pyridin-1-yl)-2-oxoethyl)-5-methylpiperazin-2-yl)methyl)morpholine-2-carboxamide)]	316 to 3310	7.80 to 8.10	++ (1,000>FS>100)	6.00 to 7.65	8.10 to 8.86	+++ (10,000>FS>1,000)	6.00 to 7.65	7.50 to 7.80	++++ (FS>10,000)		10000 to 51300	
C[C@@H]1CN(CC(=O)N2CC(C)(C)c3[nH]c(=O)c(Cc4ccc(F)cc4)cc32)[C@@H](CN2CCO[C@H](C(=O)N3CCN(C(=O)[C@@H]4CN(C[C@H]5CN[C@H](C)CN5CC(=O)N5CC(C)(C)c6[nH]c(=O)c(Cc7ccc(F)cc7)cc65)CCO4)CC3)C2)CN1 [Example 118, 1,1′-(2,2′-((3R,3′R,6R,6′R)-(((2S,2'S)-(piperazine-1,4-dicarbonyl)bis(morpholine-2,4-diyl))bis(methylene))bis(3-methylpiperazine-6,1-diyl))bis(acetyl))bis(6-(4-fluorobenzyl)-3,3-dimethyl-1,2,3,4-tetrahydro-5H-pyrrolo[3,2-b]pyridin-5-one)]	12.6 to 63.1	7.80 to 8.10	+++ (10,000>FS>1,000)	5.50 to 6.00	7.80 to 8.10	+++ (10,000>FS>1,000)	5.50 to 6.00	7.80 to 8.10	++++ (FS>10,000)			4.29 to 5.00
C[C@@H]1CN(CC(=O)N2CC(C)(C)c3[nH]c(=O)c(Cc4ccc(F)cc4)cc32)[C@@H](CN2CCO[C@H](C(=O)NCCCCCNC(=O)[C@@H]3CN(C[C@H]4CN[C@H](C)CN4CC(=O)N4CC(C)(C)c5[nH]c(=O)c(Cc6ccc(F)cc6)cc54)CCO3)C2)CN1 [Compound 136, (2S,2′S)-N,N′-(pentane-1,5-diyl)bis(4-(((2R,5R)-1-(2-(6-(4-fluorobenzyl)-3,3-dimethyl-5-oxo-2,3,4,5-tetrahydro-1H-pyrrolo[3,2-b]pyridin-1-yl)-2-oxoethyl)-5-methylpiperazin-2-yl)methyl)morpholine-2-carboxamide)]	63.1 to 316	7.80 to 8.10	+++ (10,000>FS>1,000)	5.50 to 6.00	7.80 to 8.10	+++ (10,000>FS>1,000)	5.50 to 6.00	7.50 to 7.80	++++ (FS>10,000)		10000 to 51300	
C[C@@H]1CN(CC(=O)N2CC(C)(C)c3[nH]c(=O)c(Cc4ccc(F)cc4)cc32)[C@@H](CN2CCO[C@H](COc3cccc(OC[C@@H]4CN(C[C@H]5CN[C@H](C)CN5CC(=O)N5CC(C)(C)c6[nH]c(=O)c(Cc7ccc(F)cc7)cc65)CCO4)c3Br)C2)CN1 [Example 87, 1,1′-(2,2′-((3R,3′R,6R,6′R)-(((2S,2'S)-(((2-bromo-1,3-phenylene)bis(oxy))bis(methylene))bis(morpholine-2,4-diyl))bis(methylene))bis(3-methylpiperazine-6,1-diyl))bis(acetyl))bis(6-(4-fluorobenzyl)-3,3-dimethyl-1,2,3,4-tetrahydro-5H-pyrrolo[3,2-b]pyridin-5-one)]	0.49 to 12.6	7.80 to 8.10	+++ (10,000>FS>1,000)	5.50 to 6.00	7.80 to 8.10	+++ (10,000>FS>1,000)	5.00 to 5.50	7.80 to 8.10	++++ (FS>10,000)	10000 to 51300		
C[C@@H]1CN(CC(=O)N2CC(C)(C)c3[nH]c(=O)c(Cc4ccc(F)cc4)cc32)[C@@H](CN2CCO[C@H](C(=O)NCCCC(=O)N3CCN(C[C@H]4CN[C@H](C)CN4CC(=O)N4CC(C)(C)c5[nH]c(=O)c(Cc6ccc(F)cc6)cc54)[C@H](C)C3)C2)CN1 [Compound 160, (S)-4-(((2R,5R)-1-(2-(6-(4-fluorobenzyl)-3,3-dimethyl-5-oxo-2,3,4,5-tetrahydro-1H-pyrrolo[3,2-b]pyridin-1-yl)-2-oxoethyl)-5-methylpiperazin-2-yl)methyl)-N-(4-((R)-4-(((2R,5R)-1-(2-(6-(4-fluorobenzyl)-3,3-dimethyl-5-oxo-2,3,4,5-tetrahydro-1H-pyrrolo[3,2-b]pyridin-1-yl)-2-oxoethyl)-5-methylpiperazin-2-yl)methyl)-3-methylpiperazin-1-yl)-4-oxobutyl)morpholine-2-carboxamide]	63.1 to 316	7.80 to 8.10	++ (1,000>FS>100)	5.50 to 6.00	7.80 to 8.10	+++ (10,000>FS>1,000)	5.50 to 6.00	7.80 to 8.10	++++ (FS>10,000)		10000 to 51300	
